Data: patent publication US11168073B2, “3,3-difluoroallylamines or salts thereof and pharmaceutical compositions comprising the same” (YUHAN CORPORATION, priority 2018, dated 2021)
Where a name gives a salt, the structure may show the parent alone.

What was measured:
Assay type in all cases: biochemical
[1] = target: T1, recombinant human MAO-A (monoamine oxidase-A) (Homo sapiens, UniProt P21397); assay: Activity evaluation on recombinant human MAO-A (Amplex Red/HRP-coupled assay, 0.5 mM tyramine substrate); conditions: 0.5 mM tyramine, read-out: Inhibitory Activity (IC50, nM) MAO-A
T1 construct: purchased Sigma-Aldrich
T1 sequence (P21397 1-527): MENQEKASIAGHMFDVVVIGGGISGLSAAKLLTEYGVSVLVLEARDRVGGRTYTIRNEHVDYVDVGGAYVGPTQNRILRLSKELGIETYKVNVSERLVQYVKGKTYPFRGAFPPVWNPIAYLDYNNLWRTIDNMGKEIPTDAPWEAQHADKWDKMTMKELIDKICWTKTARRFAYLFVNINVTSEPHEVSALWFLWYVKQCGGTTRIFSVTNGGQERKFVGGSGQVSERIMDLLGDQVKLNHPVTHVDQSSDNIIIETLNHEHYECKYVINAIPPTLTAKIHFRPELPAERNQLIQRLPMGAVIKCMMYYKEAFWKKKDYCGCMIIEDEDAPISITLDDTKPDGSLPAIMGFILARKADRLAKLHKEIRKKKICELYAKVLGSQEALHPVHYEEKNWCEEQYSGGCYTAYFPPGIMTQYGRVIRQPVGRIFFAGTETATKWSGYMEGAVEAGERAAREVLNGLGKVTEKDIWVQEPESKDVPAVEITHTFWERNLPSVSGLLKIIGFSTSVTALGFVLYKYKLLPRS
In short: (§1)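 Compounds preincubated 30 min at 37 °C with enzyme in 50 mM sodium phosphate pH 7.4 (final DMSO <1%, 8-point 1:3 dilutions); reaction started with 200 uM Amplex Red, 1 U/mL HRP and substrate (MAO-A 0.5 mM tyramine, MAO-B 1 mM benzylamine, DAO 1 mM putrescine). Resorufin fluorescence (ex 544/em 590 nm) followed over 1-2 h; IC50 from four-parameter logistic fit.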

[2] = target: T2, recombinant human DAO (diamine oxidase) (Homo sapiens, UniProt P19801); assay: Activity evaluation on recombinant human DAO (Amplex Red/HRP-coupled assay, 1 mM putrescine substrate); conditions: 1 mM putrescine, read-out: Inhibitory Activity (IC50, nM) DAO
T2 construct: purchased R&D systems
T2 sequence (P19801 20-751): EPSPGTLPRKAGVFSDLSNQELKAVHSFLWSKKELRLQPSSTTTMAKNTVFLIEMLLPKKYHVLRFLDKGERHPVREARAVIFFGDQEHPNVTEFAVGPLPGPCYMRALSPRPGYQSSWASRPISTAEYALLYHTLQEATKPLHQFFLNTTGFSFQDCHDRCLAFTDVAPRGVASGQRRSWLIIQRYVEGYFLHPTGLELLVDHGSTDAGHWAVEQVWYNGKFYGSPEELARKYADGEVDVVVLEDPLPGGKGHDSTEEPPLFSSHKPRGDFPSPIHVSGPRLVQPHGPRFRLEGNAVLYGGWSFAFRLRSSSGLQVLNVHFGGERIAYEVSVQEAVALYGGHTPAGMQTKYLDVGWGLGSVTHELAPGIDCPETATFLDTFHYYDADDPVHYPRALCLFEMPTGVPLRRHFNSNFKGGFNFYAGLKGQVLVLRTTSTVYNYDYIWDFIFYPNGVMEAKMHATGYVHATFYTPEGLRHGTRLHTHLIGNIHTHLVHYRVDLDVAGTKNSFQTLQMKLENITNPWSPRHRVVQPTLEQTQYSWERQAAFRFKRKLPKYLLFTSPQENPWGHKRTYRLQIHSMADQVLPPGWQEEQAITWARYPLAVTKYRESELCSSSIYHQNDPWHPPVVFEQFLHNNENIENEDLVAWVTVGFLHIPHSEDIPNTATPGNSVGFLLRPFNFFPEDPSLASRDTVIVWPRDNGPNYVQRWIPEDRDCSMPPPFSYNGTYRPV
In short: as §1

recombinant human VAP-1 = target: T3, recombinant human VAP-1 (Homo sapiens, UniProt Q16853); assay: Activity evaluation on recombinant human VAP-1 (Amplex Red/HRP-coupled hydrogen peroxide assay, benzylamine substrate); conditions: recombinant human VAP-1; 30 min preincubation at 37° C.; 1 mM benzylamine; read-out: Inhibitory Activity (IC50, nM) human VAP-1
T3 construct: purchased R&D systems
T3 sequence (Q16853 1-763): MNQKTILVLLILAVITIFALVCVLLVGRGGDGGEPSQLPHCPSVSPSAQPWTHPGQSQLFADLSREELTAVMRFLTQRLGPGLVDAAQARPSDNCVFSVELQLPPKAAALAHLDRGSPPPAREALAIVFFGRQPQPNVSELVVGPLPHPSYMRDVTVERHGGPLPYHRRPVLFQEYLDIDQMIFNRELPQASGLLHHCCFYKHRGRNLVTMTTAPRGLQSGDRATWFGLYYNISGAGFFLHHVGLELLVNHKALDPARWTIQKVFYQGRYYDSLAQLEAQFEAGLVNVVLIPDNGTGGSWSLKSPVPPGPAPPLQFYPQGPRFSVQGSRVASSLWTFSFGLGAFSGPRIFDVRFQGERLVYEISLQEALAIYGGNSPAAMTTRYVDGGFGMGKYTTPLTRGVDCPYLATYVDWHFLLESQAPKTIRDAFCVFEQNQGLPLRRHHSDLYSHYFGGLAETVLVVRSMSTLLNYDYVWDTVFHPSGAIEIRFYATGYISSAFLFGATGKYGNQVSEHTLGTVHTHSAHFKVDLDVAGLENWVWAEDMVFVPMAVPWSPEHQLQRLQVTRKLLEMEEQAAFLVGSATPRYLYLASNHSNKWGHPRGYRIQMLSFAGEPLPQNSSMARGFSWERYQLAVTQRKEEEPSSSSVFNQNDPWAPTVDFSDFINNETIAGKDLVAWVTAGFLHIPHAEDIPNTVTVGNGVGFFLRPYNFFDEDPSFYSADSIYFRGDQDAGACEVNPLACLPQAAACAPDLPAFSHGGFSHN
In short: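 Recombinant human VAP-1 in 50 mM sodium phosphate pH 7.4 preincubated 30 min at 37 °C with compound (8-point 1:3 series, <1% DMSO), then 1 mM benzylamine, 200 uM Amplex Red, 1 U/mL HRP added. H2O2-derived resorufin fluorescence (ex 544/em 590) followed 1–2 h; IC50 from four-parameter fit of rate inhibition.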

[3] = target: T4, recombinant human MAO-B (monoamine oxidase-B) (Homo sapiens, UniProt P27338); assay: Activity evaluation on recombinant human MAO-B (Amplex Red/HRP-coupled assay, 1 mM benzylamine substrate); conditions: 1 mM benzylamine, read-out: Inhibitory Activity (IC50, nM) MAO-B
T4 construct: purchased Sigma-Aldrich
T4 sequence (P27338 1-520): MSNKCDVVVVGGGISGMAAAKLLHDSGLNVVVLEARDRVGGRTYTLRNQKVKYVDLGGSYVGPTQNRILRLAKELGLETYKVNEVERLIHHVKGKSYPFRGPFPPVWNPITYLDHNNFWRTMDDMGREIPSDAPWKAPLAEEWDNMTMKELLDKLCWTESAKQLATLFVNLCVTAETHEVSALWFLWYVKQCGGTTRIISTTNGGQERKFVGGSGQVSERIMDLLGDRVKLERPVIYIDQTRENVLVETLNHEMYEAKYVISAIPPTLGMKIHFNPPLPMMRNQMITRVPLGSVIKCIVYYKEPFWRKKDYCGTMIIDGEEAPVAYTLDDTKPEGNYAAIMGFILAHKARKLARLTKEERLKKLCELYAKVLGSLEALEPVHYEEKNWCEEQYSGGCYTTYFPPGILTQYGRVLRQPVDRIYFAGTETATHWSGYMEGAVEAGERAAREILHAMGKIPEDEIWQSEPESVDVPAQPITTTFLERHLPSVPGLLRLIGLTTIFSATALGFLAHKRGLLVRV
In short: as §1

IC50 [1] | IC50 [2] | IC50 (recombinant human VAP-1) | IC50 [3] | SMILES
> 100000 nM | > 100000 nM | 2.5 nM | > 100000 nM | CC(=O)N1CC=C(c2ccc(Cn3cnn(CC(CN)=C(F)F)c3=O)s2)CC1 [Example 125, 2-[2-(aminomethyl)-3,3-difluoro-allyl]-4-[[5-(1-acetyl-3,6-dihydro-2H-pyridin-4-yl)-2-thienyl]methyl]-1,2,4-triazol-3-one Trifluoroacetate]
> 100000 nM | > 100000 nM | 0.6 nM | 1070 nM | NCC(Cn1ncn(Cc2ccc(-c3ccc4cn[nH]c4c3)s2)c1=O)=C(F)F [Example 127, 2-[2-(aminomethyl)-3,3-difluoro-allyl]-4-[[5-(1H-indazol-6-yl)-2-thienyl]methyl]-1,2,4-triazol-3-one Trifluoroacetate]
> 100000 nM | 97000 nM | 0.7 nM | > 100000 nM | NCC(Cn1ncn(Cc2ccc(-c3ccn4ncnc4c3)s2)c1=O)=C(F)F [Example 128, 2-[2-(aminomethyl)-3,3-difluoro-allyl]-4-[[5-([1,2,4]triazolo[1,5-a]pyridin-7-yl)-2-thienyl]methyl]-1,2,4-triazol-3-one Trifluoroacetate]
> 100000 nM | > 100000 nM | 0.7 nM | > 100000 nM | NCC(Cn1ncn(Cc2ccc(-c3cc(F)c4c(c3)CC(=O)N4)s2)c1=O)=C(F)F [Example 130, 5-[5-[[1-[2-(aminomethyl)-3,3-difluoro-allyl]-5-oxo-1,2,4-triazol-4-yl]methyl]-2-thienyl]-7-fluoro-indolin-2-one Trifluoroacetate]
> 100000 nM | > 10000 nM | 0.2 nM | > 100000 nM | NCC(Cn1ncn(Cc2ccc(-c3ccc4c(c3)CCC(=O)N4)s2)c1=O)=C(F)F [Example 133, 6-[5-[[1-[2-(aminomethyl)-3,3-difluoro-allyl]-5-oxo-1,2,4-triazol-4-yl]methyl]-2-thienyl]-3,4-dihydro-1H-quinolin-2-one Trifluoroacetate]
> 100000 nM | > 100000 nM | 0.3 nM | 22000 nM | Cc1cc(-c2ccc(Cn3cnn(CC(CN)=C(F)F)c3=O)s2)cc2c1NC(=O)CC2 [Example 134, 6-[5-[[1-[2-(aminomethyl)-3,3-difluoro-allyl]-5-oxo-1,2,4-triazol-4-yl]methyl]-2-thienyl]-8-methyl-3,4-dihydro-1H-quinolin-2-one Trifluoroacetate]
> 100000 nM | 79000 nM | 0.4 nM | > 100000 nM | Cc1cc(-c2ccc(Cn3cnn(CC(CN)=C(F)F)c3=O)s2)cc2ccc(=O)[nH]c12 [Example 135, 6-[5-[[1-[2-(aminomethyl)-3,3-difluoro-allyl]-5-oxo-1,2,4-triazol-4-yl]methyl]-2-thienyl]-8-methyl-1H-quinolin-2-one Trifluoroacetate]

Further lines, the compound ahead of its results:

SMILES | IC50 [1] | IC50 [2] | IC50 (recombinant human VAP-1) | IC50 [3]
CC(C)n1cc(-c2ccc(Cn3cnn(CC(CN)=C(F)F)c3=O)s2)ccc1=O [Example 123, 5-[5-[[1-[2-(aminomethyl)-3,3-difluoro-allyl]-5-oxo-1,2,4-triazol-4-yl]methyl]-2-thienyl]-1-isopropyl-pyridin-2-one Trifluoroacetate] | > 100000 nM | 59000 nM | 0.9 nM | 56000 nM
CN1CC=C(c2ccc(Cn3cnn(CC(CN)=C(F)F)c3=O)s2)CC1 [Example 124, 2-[2-(aminomethyl)-3,3-difluoro-allyl]-4-[[5-(1-methyl-3,6-dihydro-2H-pyridin-4-yl)-2-thienyl]methyl]-1,2,4-triazol-3-one Trifluoroacetate] | > 100000 nM | > 100000 nM | 11 nM | > 100000 nM
NCC(Cn1ncn(Cc2ccc(-c3ccc4c(c3)OCO4)s2)c1=O)=C(F)F [Example 126, 2-[2-(aminomethyl)-3,3-difluoro-allyl]-4-[[5-(1,3-benzodioxol-5-yl)-2-thienyl]methyl]-1,2,4-triazol-3-one Trifluoroacetate] | > 100000 nM | > 100000 nM | 0.5 nM | 760 nM
NCC(Cn1ncn(Cc2ccc(-c3ccc4nonc4c3)s2)c1=O)=C(F)F [Example 129, 2-[2-(aminomethyl)-3,3-difluoro-allyl]-4-[[5-(2,1,3-benzoxadiazol-5-yl)-2-thienyl]methyl]-1,2,4-triazol-3-one Trifluoroacetate] | > 100000 nM | 21000 nM | 0.7 nM | 311 nM
CC(=O)Nc1nc2ccc(-c3ccc(Cn4cnn(CC(CN)=C(F)F)c4=O)s3)cc2s1 [Example 131, N-[6-[5-[[1-[2-(aminomethyl)-3,3-difluoro-allyl]-5-oxo-1,2,4-triazol-4-yl]methyl]-2-thienyl]-1,3-benzothiazol-2-yl]acetamide trifluoroacetate] | 7800 nM | > 100000 nM | 0.4 nM | 12000 nM
NCC(Cn1ncn(Cc2ccc(-c3ccc4c(c3)C(=O)NCC4)s2)c1=O)=C(F)F [Example 132, 7-[5-[[1-[2-(aminomethyl)-3,3-difluoro-allyl]-5-oxo-1,2,4-triazol-4-yl]methyl]-2-thienyl]-3,4-dihydro-2H-isoquinolin-1-one Trifluoroacetate] | > 100000 nM | > 100000 nM | 0.2 nM | > 100000 nM
